# Laboratory results published in patent US8541567B2, “Transition state structure of 5′-methylthioadenosine/s-adenosylhomocysteine nucleosidases” (Albert Einstein College of Medicine of Yeshiva University, priority 2005, dated 2013).
# Entries after “also recorded” stand apart in the source; their conditions may differ.
# Tests used:
# E. coli MTAN [1] = target: T1, E. coli MTAN (Escherichia coli, UniProt P0AF12); details: cited from earlier work; for substrate activity: result in words
# T1 construct: consists of 232 amino acids belonging to E. coli MTAN and 10 residues from the N-terminal histidine fusion tag; histidine tag (N, cleaved yes); made in house
# [2] = 9-deazapurine ring; cited from earlier work
# E. coli MTAN [3] = target: T1, E. coli MTAN; assay: Slow-onset inhibition of E. coli MTAN by transition state analogues; format: biochemical; details: Kd 47 fM versus Km 4.3 μM
# E. coli MTAN [4] = target: T1, E. coli MTAN; details: overall / equilibrium dissociation constant; read-out: dissociation constant (Kd) following slow-onset inhibition, or Ki*; cited from earlier work
# T1 sequence (P0AF12 whole entry, the tested form may be a part): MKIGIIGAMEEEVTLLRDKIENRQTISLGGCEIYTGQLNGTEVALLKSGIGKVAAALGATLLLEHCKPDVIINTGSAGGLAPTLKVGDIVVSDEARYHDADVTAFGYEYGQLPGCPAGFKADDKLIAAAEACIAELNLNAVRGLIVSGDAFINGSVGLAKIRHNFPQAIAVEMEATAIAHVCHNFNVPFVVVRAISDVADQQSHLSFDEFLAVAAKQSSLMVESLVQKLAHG
compound,measurement,setting,value
CSC[C@H]1O[C@@H](n2cnc3c(N)ncnc32)C[C@@H]1O [2′-deoxy-MTA],catalytic activity retained,E. coli MTAN [1]; relative to MTA,85%
same,substrate activity,E. coli MTAN [1],good substrate
CSC[C@@H]1C[C@@H](O)[C@H](n2cnc3c(N)ncnc32)O1 [3′-deoxy-MTA],substrate activity,E. coli MTAN [1],is not; also recorded: not a substrate
Nc1ncnc2cc[nH]c12 [9-deazaadenine],pKa at N7,[2],> 10
Nc1ncnc2c1ncn2[C@@H]1O[C@H](CSCC[C@H](N)C(=O)O)[C@@H](O)[C@H]1O [S-adenosylhomocysteine],Km,E. coli MTAN [1]; substrate S-adenosylhomocysteine,4.3 µM
"Nc1ncnc2c(CN3C[C@H](CSc4ccc(Cl)cc4)[C@@H](O)C3)c[nH]c12 [pC1PhT-DADMe-ImmA, (3R,4S)-4-(4-chlorophenylthiomethyl)-1-[(9-deazaadenin-9-yl]methyl)-3-hydroxypyrrolidine]",binds tighter than the substrate S-adenosylhomocysteine,E. coli MTAN [3],91 million
"(1S)-1-(9-deazaadenin-9-yl)-1,4-dideoxy-1,4-imino-5-methylthio-D-ribitol [MT-ImmA]",Kd,E. coli MTAN [4],0.077 nM
